Source: US20130323361A1, “NUTRITIONAL COMPOSITIONS INCLUDING EXOGENOUS VITAMIN K2” (NESTEC S.A., priority 2009, published 2013)

Columns and labels:
Type in all cases: in vivo, Male Sprague-Dawley rats
plasma TNF-a = test: Plasma TNF-a in LPS-challenged rats; details: 25 or 50 microgram oral daily over 7 days, LPS 0.5 mg/kg IP 2 hours after last dose, sacrifice four hours later, compared to LPS treated animals
Experimental: (§1) Male Sprague-Dawley rats (175 g) are kept on a 12-h light:dark cycle with food (Harlan-Teklad Rodent Chow, Madison, Wis.) and water provided freely. Animals are administered daily doses of vitamin K2 (MK-7) or saline (control) via oral gavage over 7 days. Stock solutions of vitamin K2 are prepared containing 3.5 g/L HCO-60 and 1 g/L of […] in buffer A (0.15 M NaCl, 0.05 M Tris-HCl, pH 7.5). The K2 is dissolved by sonication during five pulses of 5 set with an amplitude of 6 pm. Solutions thus obtained are clear, homogeneous, and stable. Shortly before vitamin K administration the stock solutions are diluted five times with buffer A, leading to a final HCO-60 concentration of 0.7 g/L. Further dilutions (as required) are made with 0.7 g/L HCO-60 in buffer A. Each dilution step is followed by sonication as described above. In all cases vitamin K2 is administered to the rats in 0.5 mL samples, with either 25 or 50 microgram oral doses.
On the final day (Day 7), rodents are administered vitamin K2 and 2 hours later were given an IP dose of LPS (Escherichia coli serotype 0111:B4, L2630, Sigma) intraperitoneally (0.5 mg/kg of body weight). Four hours later animals are sacrificed.

IKKα/β (Ser176/180) = test: Immunoblot of phosphorylated IKKα/β in gastrocnemius muscle of LPS-challenged rats; details: 25 or 50 microgram oral daily over 7 days, LPS 0.5 mg/kg IP, compared to LPS treatment
Experimental: (§2) Male Sprague-Dawley rats (175 g) are kept on a 12-h light:dark cycle with food (Harlan-Teklad Rodent Chow, Madison, Wis.) and water provided freely. Animals are administered daily doses of vitamin K2 (MK-7) or saline (control) via oral gavage over 7 days. Stock solutions of vitamin K2 are prepared containing 3.5 g/L HCO-60 and 1 g/L of […] in buffer A (0.15 M NaCl, 0.05 M Tris-HCl, pH 7.5). The K2 is dissolved by sonication during five pulses of 5 set with an amplitude of 6 pm. Solutions thus obtained are clear, homogeneous, and stable. […]
(§3) Analysis of mTOR Signaling to elFs—Gastrocnemius muscles are weighed and homogenized in 7 volumes of buffer containing 20 mM HEPES (pH 7.4), 100 mM potassium chloride, 0.2 mM EDTA, 2 mM EGTA, 50 mM sodium fluoride, 50 mM glycerophosphate, 0.1 mM phenylmethylsulfonyl fluoride, 1 mM benzamidine, 1 mM dithiothreitol (DTT), and 0.5 mM sodium vanadate. […] Samples are analyzed for the phosphorylation status of 4E-BP 1 (Thr37) and ribosomal protein S6 (Ser 235/236), the anti-phosphospecific antibodies were obtained from Cell Signaling Technology, Beverly, Mass. Additionally, samples are analyzed for phosphorylated IKKα/β (Ser176/180; Cell Signaling Technology) and phosphorylated p65 (Ser536; Cell Signaling Technology).

NFαB p65 = test: Immunoblot of phosphorylated p65 in gastrocnemius muscle of LPS-challenged rats; details: 25 or 50 microgram oral daily over 7 days, LPS 0.5 mg/kg IP, compared to LPS treatment
Experimental: as §2, §3

4E-BP 1 (Thr37) = test: mTOR signaling: 4E-BP1 phosphorylation in gastrocnemius muscle of LPS-challenged rats; details: 25 or 50 microgram oral daily over 7 days, LPS 0.5 mg/kg IP, compared to LPS treatment
Experimental: as §2, §3

[1] = tested on: ribosomal protein S6 (Ser 235/236); test: mTOR signaling: ribosomal protein S6 phosphorylation in gastrocnemius muscle of LPS-challenged rats; details: 25 or 50 microgram oral daily over 7 days, LPS 0.5 mg/kg IP, compared to LPS treatment
Experimental: as §2, §3

[2] = tested on: total mixed muscle protein; test: Measurement of protein synthesis (fractional rate Ks, radioactive phenylalanine incorporation) in LPS-challenged rats; details: 25 or 50 microgram oral daily over 7 days, LPS 0.5 mg/kg IP, under conditions of inflammatory sepsis, compared to LPS treatment
Experimental: as §1, with “doses. […]” for “doses.”
Measurement of Protein Synthesis—The fractional rate of synthesis (Ks) is estimated from the rate of incorporation of radioactive phenylalanine into total mixed muscle protein using the specific radioactivity of serum phenylalanine as representative of the precursor pool. […]

CC(C)=CCC/C(C)=C/CC/C(C)=C/CC/C(C)=C/CC/C(C)=C/CC/C(C)=C/CC/C(C)=C/CC1=C(C)C(=O)c2ccccc2C1=O [K2, vitamin K2 (MK-7)]
rise of plasma TNF-a (plasma TNF-a): significant decrease in the rise | drop in phosphorlyation for IKKα/β (IKKα/β (Ser176/180)): significant blunting of the drop in phosphorlyation | NFαB p65 induction (NFαB p65): significant blunting | decrease in 4E-BPI(Thr-37) phosphorylation (4E-BP 1 (Thr37)): abrogates the decrease | decrease in ribosomal protein S6 phosphorylation [1]: abrogates the decrease | fractional rate of mixed muscle protein synthesis [2]: greater preservation
